Two substances from patent US12653896B2, “Targeted dendrimer conjugates” (Starpharma Pty Ltd, priority 2019, dated 2026) can be followed below.

The test system of assay [1] is MDA-MB-231 cells. Put plainly: In vitro association study (flow cytometry, Cy5), MDA-MB-231. Format: cell-based, human. Conditions: MDA-MB-231, 3.33 nM, in words. How it is done: (§1) MDA-MB-231, MDA-MB-231/HER2 (HER2 knock in) (as described above), or SKOV-3 cells were seeded in a 24-well plate (1×10^5 cells per well) in 500 μL of appropriate growth media with the addition of 10% (v/v) fetal bovine serum (FBS) and incubated with compound 36 or 41 at 3.33 nM, […] atmosphere. After incubation, non-binding/non-associating particles were removed from adherent cells by gently washing with DPBS three times (300 μL/well). Cells were removed from plates by treatment with TrypLE™ Express Enzyme (1×), no phenol red (150 μL/well) for 5-10 min at room temperature. The plates were then placed on ice. Cellular binding and association of sample were then determined through flow cytometry by the acquisition of the signal from Cy5.

For a further assay, the system named is SKOV-3 cells. Put plainly: In vitro association study (flow cytometry, Cy5), SKOV-3. Format: cell-based, human. Conditions: SKOV-3, 3.33 nM. On the procedure: MDA-MB-231, MDA-MB-231/HER2 (HER2 knock in) (as described above), or SKOV-3 cells were seeded in a 24-well plate (1×10^5 cells per well) in 500 μL of appropriate growth media with the addition of 10% (v/v) fetal bovine serum (FBS) and incubated with compound 36 or 41 at 3.33 nM, with incubation time varied from 1 to 24 h at 37° C. in a 5% CO2 humidified atmosphere. After incubation, non-binding/non-associating particles were removed from adherent cells by gently washing with DPBS three times (300 μL/well). Cells were removed from plates by treatment with TrypLE™ Express Enzyme (1×), no phenol red (150 μL/well) for 5-10 min at room temperature. The plates were then placed on ice. Cellular binding and association of sample were then determined through flow cytometry by the acquisition of the signal from Cy5.
In general terms: In flow cytometry, cells or beads pass a laser one at a time.

Another assay concerns MDA-MB-231/HER2 cells. The assay is described as follows: In vitro association study (flow cytometry, Cy5), MDA-MB-231/HER2. Type of assay: cell-based, human. Conditions: MDA-MB-231/HER2, 3.33 nM. How it is done: as §1
In assay [2] the test system is MDA-MB-231 cells. Put plainly: Confocal cellular uptake, MDA-MB-231. Format: cell-based, human. Conditions: MDA-MB-231, 3.33 nM, 24 h. How it is done: MDA-MB-231, MDA-MB-231/HER2 and SKOV-3 cells were plated at 1.0×10^4 cells per well into μ-slide 8 well chambered coverslip (ibidi) and allowed to adhere overnight at 37° C., 5% CO2. compounds 36 and 41 (3.33 nM) were then added and allowed to incubate for 1, 3, 6 and 24 hrs. The cells were washed and then fixed with 1% paraformaldehyde for 20 min at room temperature. The cell membrane was stained with Alexa Fluor 488-wheat germ agglutinin (AF488-WGA, 5 μg mL^−1) in DPBS at room temperature for 10 min. The cell nuclei were counterstained with 4′,6-diamidino-2-phenylindole (DAPI, 2 μg mL^−1) in DPBS at room temperature for 10 min. Fluorescence images and optical sections were collected using a confocal microscope (Leica SP8). Images were processed with Fiji (Image J 1.52n).

The next assay concerns the target T1, ErbB2-ECD (Homo sapiens, UniProt P04626).
T1 construct: Direct Immobilization of ErbB2-ECD
Put plainly: SPR binding to immobilized ErbB2-ECD. The following applies: result in words. How it is done: Using a ProteOn XPR36 instrument, ErbB2-ECD was immobilized at 25° C. onto a GLC sensor chip surface (Bio-Rad), with HBS-P+ running buffer (10 mM HEPES, pH 7.4, 150 mM NaCl, 0.05% Tween 20). Standard amine coupling methodology described in Bio-Rad's amine coupling kit was utilized for this immobilization. Lane 1 was activated with a 50:50 mixture of EDC (0.5 mM) and sulfo-NHS (0.125 mM). ErbB2 protein was diluted to […] in 10 mM sodium acetate, pH 5.0 and injected over the activated surface channel. Any remaining activated sites were blocked with 1 M ethanolamine-HCl, pH 8.5.
All SPR binding experiments were performed at 25° C. using HBS-EP+/BSA (10 mM HEPES, pH 7.4, 150 mM NaCl, 3 mM EDTA, 0.05% Tween20, 0.1 mg/ml BSA) as the instrument running buffer (RB). Following immobilization procedures, various concentrations of anti-ErbB2 affibodies and their MMAE-dendrimer conjugates were injected at 60 μl/min over immobilized ErbB2 proteins and their association monitored for 90 sec. Running buffer was subsequently injected over bound Ab-ErbB2 complexes and dissociation monitored for up to 60 min. […] All binding measurements were performed in triplicate.
Collected experimental data were processed using Scrubber-Pro software (www.biologic.com.au). […]
(In general: SPR reads the build-up and loss of mass on a sensor chip optically.)

Regarding “(MeTzPh)PEG4CO-NHPEG24CO—[N(PN)2][Lys]8[((α-NH-Cy5)1-4(α-NH-Glu-Val-Cit-PAB-MMAE)4-7)(ε-NH-COPEG1100)8] [Compound 36]”, the “binding over 24 h” value in the assay with MDA-MB-231 cells [1], with SKOV-3 cells (in words) and in the assay on MDA-MB-231/HER2 cells (in words) was “minimal binding” each time. Besides, the Mean fluorescence intensity with SKOV-3 cells (24 h, 37° C.) turned out to be 16.4±6.86; in the assay with MDA-MB-231/HER2 cells (24 h, 37° C.), 16.05±1.89. In the assay on MDA-MB-231 cells [2], the “association with cells (confocal)” value was “little”.

Turning to “Azido-PEG24CO—[N(PN)2][Lys]8[(α-NH-Glu-Val-Cit-PAB-MMAE)8(ε-NH-COPEG1100)8] [Compound 20]”, the “binding to ErbB2” value at ErbB2-ECD is recorded as “No binding”.
